Measured values as given in US20140243401A1, “METHODS OF SCREENING COMPOUNDS THAT ARE CYTOTOXIC TO TUMOR CELLS AND METHODS OF TREATING TUMOR CELLS USING SUCH COMPOUND” (The Johns Hopkins University, priority 2010, published 2014).
Converted amounts (≈) assume the structure as drawn. “And” between values parts separate entries of the source, which are not always exact repeats. Equal values may be shown once.

Columns and labels:
[1] = tested on: Human ovarian cancer cell lines; test: XTT cytotoxicity assay, human ovarian cancer cell lines; type: cell-based; settings: 2 human ovarian cancer cell lines, read-out: LC50 (the source's name)
Experimental: (§1) Cytotoxicity can be easily measured using XTT assays, which provide an indication of mitochondrial activity. The XTT assay is a non-radioactive alternative for the [^51Cr] release cytotoxicity assay. XTT is a tetrazolium salt that is reduced to a formazan dye only by metabolically active, viable cells. The reduction of XTT is measured spectrophotometrically as OD490-OD650. Thus, cells that are actively metabolizing will form reaction product when subjected to XTT measurement.
(§2) For this experiment, cells were cultured under standard culture conditions. MCF7 human breast cancer cells were cultured in DMEM containing 5 mM glucose medium with 10% fetal calf serum, 0.01 mg/ml insulin and 1% penicillin/streptomycin. To measure the cytotoxicity of specific compounds against cancer cells, 9×10^3 MCF7 cells were plated per well in 96-well plates. Following overnight culture, the compounds, dissolved in DMSO, were added to the wells in 1 μl volume at specified concentrations. Vehicle controls were run for each experiment. Each condition was run in triplicate. […] Plates were read at OD490 on a PerkinElmer Victor 1420. […]
(§3) Using the XTT assay, LC50 values for C31 were determined for numerous human cancer cell lines and human hepatocytes, as shown in the following table: […]

[2] = tested on: SKOV3 human ovarian cancer cells; test: JC-1 staining, mitochondrial membrane potential in SKOV3 cells; type: cell-based; settings: SKOV3, drug in DMSO applied 30 min prior to staining
Source text: JC-1 staining is an indicator of mitochondrial membrane potential; with this assay, mitochondria within cells stained with this fluorescent dye emit a wavelength in the red spectrum when mitochondrial membrane potential is intact. When mitochondria are depolarized, the wavelength of the spectrum emitted changes to green. Therefore, the ratio of red/green fluorescence will give an indication of the intactness of the membrane potential of mitochondria, and thus mitochondrial function.
The left panels show granular red-staining indicating mitochondria with intact membrane potential is brightest in control, and decreases with increasing concentrations of C31. Conversely, the right panels show the diffuse cytoplasmic green-staining which indicates mitochondrial depolarization, is dimmest in control and brightest at the highest concentration of C31 tested. Drug was solubilized in DMSO and applied for 30 min prior to staining.

[3] = alamarBlue assay, primary human hepatocytes; type: cell-based; settings: read-out: LC50 (the source's name)
mitochondrial FAS [4] = test: 14C-malonate incorporation into mitochondrial fatty acids, mitochondria isolated from rat liver; type: biochemical; settings: FIG. 3
Experimental: (§4) Mammalian mitochondrial FAS activity may be determined in a variety of ways. For example, [14C]malonate may be added to isolated mitochondria, fatty acids are extracted, and then radioactivity is tested. (See Zhang et al., J. Bio. Chem. 278(41): 40067-40074, 2003; Mikolajczyk, J. and Brody, S., Eur. J. Biochem. 187: 431-437, 1990). The mitochondria are purified using methods known in the art. (See Qiagen's Qproteome Mitochondria Isolation Kit; Methods in Enzymology, Vol. 10, Chapter 11, 1967). To test the inhibition of mmFAS activity, a test compound is added to the reaction mixture. Therefore, a test compound may be screened according the methods described herein as follows: (i) isolating mitochondria; (ii) incubating mitochondria with [14C]malonate with and without a test compound; and (iii) determining the quantity of lipids and/or fatty acids produced. By comparing the amount of product in the presence of the test compound to the amount in its absence, the degree of inhibition can be determined.
Mitochondria from MCF7 cells were prepared following manufacturer's protocol (Mitochondria Isolation Kit, Sigma, Saint Louis, Mo.). Rat liver mitochondria were isolated by homogenization with a tissue homogenizer in H-medium (220 mM mannitol, 70 mM sucrose, 2 mM HEPES, and 0.5 g/L of fatty acid free bovine serum albumin, pH 7.4). The homogenate was centrifuged at 1100 g for 3 min and washed twice with H-medium. The supernatants were pooled and centrifuged at 6800 g for 15 min. The pellet was then rinsed again and centrifuged at 3000 g for 3 min. The mitochondria supernatants were saved. The sediments were resuspended in H-medium and centrifuged at 3000 g for 3 min. The mitochondria supernatants were combined and centrifuged at 20,000 g for 15 min. The resulting mitochondria pellet were rinsed and centrifuged again at 20,000 g for 20 min.
Isolated mitochondria (100-200 μg) were mixed with 50 mM TES-KOH (pH 7.2), 10 mM MgCl2, 0.3 M sorbitol, 0.1% BSA, 1 mM each of ATP, ADP, NADH, NADPH, CoA, DTT and 1 μCi of [2-^14C]malonic acid (50 mCi/mmol) in a total volume of 200 μl. The reaction was performed for 30 min at room temperature. C31, Riv7d or vehicle were added at the beginning of this reaction. At the end of 30 minutes, the mitochondria pellet was separated from supernatant by centrifugation at 14000 rpm for 5 min. After washing with 500 μl of 50 mM TES-KOH (pH 7.2) and 0.3 M sorbitol, the mitochondria were incubated in 200 μl of H2O and 20 μl of 10 M KOH for 15 min at 65° C. Then the samples were added with 40 μl of 5 M H2SO4 and 20 μl of 1 mM palmitic acid (in 1 M acetic acid in isopropanol). The ^14C labeled fatty acids were twice extracted with hexane and sent to scintillation counting after drying.

Human hepatoma cell line = test: XTT cytotoxicity assay, human hepatoma cell line; type: cell-based; settings: 1 human hepatoma cell line, read-out: LC50 (the source's name)
Experimental: as §1, §2, §3

[5] = tested on: Human breast cancer cell lines; test: XTT cytotoxicity assay, human breast cancer cell lines; type: cell-based; settings: 5 human breast cancer cell lines, read-out: LC50 (the source's name)
Experimental: as §1, §2, §3

mitochondrial FAS [6] = test: 14C-malonate incorporation into lipids of mitochondria isolated from MCF7 cells; type: biochemical, human; settings: FIG. 2, vs vehicle
Experimental: as §4
Mitochondria from MCF7 cells were prepared following manufacturer's protocol (Mitochondria Isolation Kit, Sigma, Saint Louis, Mo.). Rat liver mitochondria were isolated by homogenization with a tissue homogenizer in H-medium (220 mM mannitol, 70 mM sucrose, 2 mM HEPES, and 0.5 g/L of fatty acid free bovine serum albumin, pH 7.4). […]

Question: Which CC50 [1] does the source give for `CCCCCCCCC1(C)SC(=O)C=C1OCC(=O)Nc1ccc(Cl)cc1` (centres unmarked) [Compound C31] here?
Answer: The CC50 was 6 to 8.1 µg/mL (≈ 14.6 to 19.8 µM).

Question: What about the “mitochondrial depolarization (JC-1 staining)” value [2] of the same molecule?
Answer: The value was “depolarization of the mitochondria in the SKOV3 human ovarian cancer cells which is dose-dependent”.

Question: And the CC50 [3]?
Answer: The CC50 was 225 µg/mL and 562 µM.

Question: And the “IC50, inhibition of mitochondrial FAS (14C-malonate incorporation)” value (mitochondrial FAS [4]; isolated mitochondria)?
Answer: Its value is “less than 4 μg per mL”.

Question: What about the “effect on 14C-malonate incorporation into mitochondrial fatty acids” value (mitochondrial FAS [4]; mitochondria isolated from rat liver) of the same molecule?
Answer: The value was “dose-dependent inhibitory effect”.

Question: And the CC50 (Human hepatoma cell line)?
Answer: Its CC50 is 5 µg/mL (≈ 12.2 µM).

Question: What about the CC50 [5] of the same molecule?
Answer: Its CC50 is 3.3 to 16.7 µg/mL (≈ 8.05 to 40.7 µM).

Question: And the “effect on 14C-malonate incorporation into lipids of isolated mitochondria” value (mitochondrial FAS [6])?
Answer: Its value is “inhibited the incorporation of malonate into lipids in a dose-dependent manner”.
